Patent US20100137449A1, “SUBSTITUTED 1,3-CYCLOPENTADIONE MULTI-TARGET PROTEIN KINASE MODULATORS OF CANCER, ANGIOGENESIS AND THE INFLAMMATORY PATHWAYS ASSOCIATED THEREWITH” (METAPROTEOMICS, LLC, priority 2007, published 2010)

Key:
Assay in all cases: KinaseProfiler Assay
PKCδ(h) = PKCδ(h) (Homo sapiens, UniProt Q05655)
Rsk3(h) = Rsk3(h) (Homo sapiens, UniProt Q15349)
DAPK1(h) = DAPK1(h) (Homo sapiens, UniProt P53355)
PI 3-Kinaseδ(h) = molecular target: PI 3-Kinaseδ(h)
Fyn(h) = Fyn(h) (Homo sapiens, UniProt P06241)
Ret(h) = Ret(h) (Homo sapiens, UniProt P07949)
PAK6(h) = PAK6(h) (Homo sapiens, UniProt Q9NQU5)
cKit(D816V)(h) = cKit(D816V)(h) (Homo sapiens, UniProt P10721, D816V)
CaMKIIβ(h) = CaMKIIβ(h) (Homo sapiens, UniProt Q13554)
NEK11(h) = molecular target: T1, NEK11(h) (Homo sapiens, UniProt Q8NG66)
T1 sequence (Q8NG66 1-645): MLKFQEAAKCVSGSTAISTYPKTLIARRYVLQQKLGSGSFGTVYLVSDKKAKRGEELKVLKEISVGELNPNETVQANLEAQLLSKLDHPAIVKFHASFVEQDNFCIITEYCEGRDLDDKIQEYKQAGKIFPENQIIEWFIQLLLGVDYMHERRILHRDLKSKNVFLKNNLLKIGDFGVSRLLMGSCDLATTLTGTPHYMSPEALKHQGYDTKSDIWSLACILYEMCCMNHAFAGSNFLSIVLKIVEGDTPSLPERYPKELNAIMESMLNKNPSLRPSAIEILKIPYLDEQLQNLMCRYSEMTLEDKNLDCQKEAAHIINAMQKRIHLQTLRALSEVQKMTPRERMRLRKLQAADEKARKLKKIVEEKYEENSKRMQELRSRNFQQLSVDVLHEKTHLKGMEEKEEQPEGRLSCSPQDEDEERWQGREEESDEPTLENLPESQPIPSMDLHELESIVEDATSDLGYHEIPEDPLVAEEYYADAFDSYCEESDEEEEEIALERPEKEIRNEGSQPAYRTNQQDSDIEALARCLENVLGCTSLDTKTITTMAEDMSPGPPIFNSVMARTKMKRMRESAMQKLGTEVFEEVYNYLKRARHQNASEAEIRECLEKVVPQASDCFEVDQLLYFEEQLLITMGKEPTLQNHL

MAPK1(h), ERK1 = MAPK1(h), ERK1 (Homo sapiens, UniProt P27361)
Lyn(m) = Lyn(m) (Mus musculus, UniProt P25911)
PAK2(h) = PAK2(h) (Homo sapiens, UniProt Q13177)
EGFR(T790M)(h) = EGFR(T790M)(h) (Homo sapiens, UniProt P00533, T790M)
Arg(h) = Arg(h) (Homo sapiens, UniProt P42684)
Chain of Arg(h) (P42684 whole entry): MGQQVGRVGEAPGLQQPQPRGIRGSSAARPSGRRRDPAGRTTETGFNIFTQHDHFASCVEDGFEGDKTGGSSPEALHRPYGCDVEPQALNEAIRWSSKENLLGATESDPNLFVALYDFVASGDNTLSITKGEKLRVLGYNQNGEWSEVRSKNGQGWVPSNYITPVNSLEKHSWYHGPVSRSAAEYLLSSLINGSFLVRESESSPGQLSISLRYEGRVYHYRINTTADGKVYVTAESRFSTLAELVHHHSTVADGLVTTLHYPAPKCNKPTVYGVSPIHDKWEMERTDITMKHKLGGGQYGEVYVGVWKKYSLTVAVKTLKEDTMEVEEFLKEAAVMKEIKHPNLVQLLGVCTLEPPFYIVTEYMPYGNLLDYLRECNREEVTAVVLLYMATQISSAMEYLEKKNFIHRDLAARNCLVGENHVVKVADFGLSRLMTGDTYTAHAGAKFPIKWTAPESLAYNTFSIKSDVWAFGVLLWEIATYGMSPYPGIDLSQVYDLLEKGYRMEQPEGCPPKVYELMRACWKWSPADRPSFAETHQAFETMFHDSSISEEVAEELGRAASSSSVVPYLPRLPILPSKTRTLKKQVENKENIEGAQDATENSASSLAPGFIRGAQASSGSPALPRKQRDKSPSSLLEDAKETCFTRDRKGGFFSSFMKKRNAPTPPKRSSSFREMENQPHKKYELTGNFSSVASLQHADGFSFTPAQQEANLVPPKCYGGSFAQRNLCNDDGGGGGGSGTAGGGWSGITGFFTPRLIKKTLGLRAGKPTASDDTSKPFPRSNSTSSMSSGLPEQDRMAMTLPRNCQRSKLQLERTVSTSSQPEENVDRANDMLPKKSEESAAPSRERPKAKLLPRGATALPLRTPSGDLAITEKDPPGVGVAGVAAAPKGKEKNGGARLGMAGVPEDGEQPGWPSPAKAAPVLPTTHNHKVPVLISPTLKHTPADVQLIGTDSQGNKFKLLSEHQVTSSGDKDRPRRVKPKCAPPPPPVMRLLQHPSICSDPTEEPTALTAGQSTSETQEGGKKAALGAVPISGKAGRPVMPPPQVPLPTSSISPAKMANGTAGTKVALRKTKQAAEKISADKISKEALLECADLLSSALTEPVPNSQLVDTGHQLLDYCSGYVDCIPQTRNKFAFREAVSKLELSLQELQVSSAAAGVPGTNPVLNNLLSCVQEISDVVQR

Chain of PKCδ(h) (Q05655 whole entry): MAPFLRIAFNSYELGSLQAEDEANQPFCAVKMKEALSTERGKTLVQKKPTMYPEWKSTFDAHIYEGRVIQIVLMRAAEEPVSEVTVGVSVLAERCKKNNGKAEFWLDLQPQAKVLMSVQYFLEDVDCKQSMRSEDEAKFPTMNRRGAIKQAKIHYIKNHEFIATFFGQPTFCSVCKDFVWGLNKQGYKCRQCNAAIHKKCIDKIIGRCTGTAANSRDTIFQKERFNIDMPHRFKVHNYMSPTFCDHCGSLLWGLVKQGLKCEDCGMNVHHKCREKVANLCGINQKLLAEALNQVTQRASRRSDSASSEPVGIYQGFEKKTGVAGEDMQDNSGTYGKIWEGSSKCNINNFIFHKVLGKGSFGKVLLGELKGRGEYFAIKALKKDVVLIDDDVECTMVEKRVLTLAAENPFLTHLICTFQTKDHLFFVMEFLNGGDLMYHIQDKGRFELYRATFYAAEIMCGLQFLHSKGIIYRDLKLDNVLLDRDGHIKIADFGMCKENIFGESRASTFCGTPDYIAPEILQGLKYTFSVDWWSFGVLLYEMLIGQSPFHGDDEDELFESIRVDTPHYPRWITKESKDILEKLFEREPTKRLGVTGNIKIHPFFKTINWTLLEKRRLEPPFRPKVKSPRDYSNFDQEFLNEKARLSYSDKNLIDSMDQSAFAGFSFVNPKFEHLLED
Chain of PAK6(h) (Q9NQU5 whole entry): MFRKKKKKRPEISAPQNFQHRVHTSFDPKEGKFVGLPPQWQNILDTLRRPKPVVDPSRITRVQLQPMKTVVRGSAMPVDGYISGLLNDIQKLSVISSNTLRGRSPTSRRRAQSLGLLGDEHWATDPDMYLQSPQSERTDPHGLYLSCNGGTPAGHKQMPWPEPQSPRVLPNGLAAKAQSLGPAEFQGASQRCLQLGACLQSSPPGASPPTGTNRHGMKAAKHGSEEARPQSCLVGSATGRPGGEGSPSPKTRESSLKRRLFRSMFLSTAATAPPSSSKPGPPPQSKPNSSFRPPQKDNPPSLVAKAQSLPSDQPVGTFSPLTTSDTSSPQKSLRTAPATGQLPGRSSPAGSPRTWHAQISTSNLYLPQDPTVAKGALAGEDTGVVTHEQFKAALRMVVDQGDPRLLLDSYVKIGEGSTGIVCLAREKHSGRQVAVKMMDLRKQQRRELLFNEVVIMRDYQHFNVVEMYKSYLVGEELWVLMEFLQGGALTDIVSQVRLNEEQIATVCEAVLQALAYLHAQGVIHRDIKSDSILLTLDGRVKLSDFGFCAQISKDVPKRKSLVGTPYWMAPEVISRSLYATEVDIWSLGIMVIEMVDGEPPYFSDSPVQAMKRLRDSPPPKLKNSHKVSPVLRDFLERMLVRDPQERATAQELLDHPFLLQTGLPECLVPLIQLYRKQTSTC
Chain of cKit(D816V)(h) (P10721 26-976 D816V): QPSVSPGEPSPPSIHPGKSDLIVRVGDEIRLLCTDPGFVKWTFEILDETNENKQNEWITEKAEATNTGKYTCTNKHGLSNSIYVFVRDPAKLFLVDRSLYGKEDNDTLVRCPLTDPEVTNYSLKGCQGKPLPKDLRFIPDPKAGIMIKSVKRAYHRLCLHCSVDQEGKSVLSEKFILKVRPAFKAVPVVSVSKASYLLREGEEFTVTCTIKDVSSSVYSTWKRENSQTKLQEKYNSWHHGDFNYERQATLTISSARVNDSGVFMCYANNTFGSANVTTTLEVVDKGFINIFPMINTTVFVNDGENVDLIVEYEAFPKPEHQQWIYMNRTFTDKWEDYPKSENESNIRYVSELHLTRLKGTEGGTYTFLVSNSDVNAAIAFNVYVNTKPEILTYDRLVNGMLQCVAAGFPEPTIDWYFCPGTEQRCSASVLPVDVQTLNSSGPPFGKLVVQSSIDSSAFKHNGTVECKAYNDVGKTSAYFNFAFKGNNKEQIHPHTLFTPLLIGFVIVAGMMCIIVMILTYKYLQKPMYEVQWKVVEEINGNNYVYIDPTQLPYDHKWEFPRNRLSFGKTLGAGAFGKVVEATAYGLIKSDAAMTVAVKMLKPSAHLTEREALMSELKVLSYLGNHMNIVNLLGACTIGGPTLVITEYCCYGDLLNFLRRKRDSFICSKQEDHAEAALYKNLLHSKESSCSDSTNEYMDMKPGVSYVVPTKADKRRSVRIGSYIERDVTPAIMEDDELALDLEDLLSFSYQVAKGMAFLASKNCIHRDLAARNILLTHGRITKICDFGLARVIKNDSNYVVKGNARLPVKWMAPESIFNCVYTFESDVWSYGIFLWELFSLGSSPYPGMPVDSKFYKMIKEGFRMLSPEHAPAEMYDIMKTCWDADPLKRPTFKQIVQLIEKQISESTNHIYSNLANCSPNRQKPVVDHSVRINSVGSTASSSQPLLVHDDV
Chain of MAPK1(h), ERK1 (P27361 whole entry): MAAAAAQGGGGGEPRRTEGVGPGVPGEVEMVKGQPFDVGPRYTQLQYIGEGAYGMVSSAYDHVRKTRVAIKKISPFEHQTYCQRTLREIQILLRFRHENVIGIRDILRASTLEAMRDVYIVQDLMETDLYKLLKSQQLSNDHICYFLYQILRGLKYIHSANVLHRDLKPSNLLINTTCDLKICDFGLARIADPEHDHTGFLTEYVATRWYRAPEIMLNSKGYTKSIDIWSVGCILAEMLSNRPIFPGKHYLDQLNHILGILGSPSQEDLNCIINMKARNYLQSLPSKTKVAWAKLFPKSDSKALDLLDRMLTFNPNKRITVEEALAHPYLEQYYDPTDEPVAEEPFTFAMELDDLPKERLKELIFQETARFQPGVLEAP
Chain of PAK2(h) (Q13177 whole entry): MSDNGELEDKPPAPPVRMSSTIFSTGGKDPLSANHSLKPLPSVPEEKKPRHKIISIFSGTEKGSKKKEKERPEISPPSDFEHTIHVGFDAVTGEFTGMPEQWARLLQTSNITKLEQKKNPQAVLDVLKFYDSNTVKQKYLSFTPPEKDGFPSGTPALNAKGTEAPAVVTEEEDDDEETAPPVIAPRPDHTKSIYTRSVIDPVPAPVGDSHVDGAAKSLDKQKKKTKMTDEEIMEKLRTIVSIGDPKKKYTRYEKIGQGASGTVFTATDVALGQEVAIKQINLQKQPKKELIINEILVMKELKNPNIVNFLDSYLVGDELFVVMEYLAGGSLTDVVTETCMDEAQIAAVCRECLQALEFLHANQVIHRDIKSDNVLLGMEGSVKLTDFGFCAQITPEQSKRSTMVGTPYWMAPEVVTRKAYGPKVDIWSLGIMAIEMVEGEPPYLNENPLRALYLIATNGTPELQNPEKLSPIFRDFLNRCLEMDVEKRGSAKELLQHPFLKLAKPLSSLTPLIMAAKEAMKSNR
Chain of Fyn(h) (P06241 whole entry): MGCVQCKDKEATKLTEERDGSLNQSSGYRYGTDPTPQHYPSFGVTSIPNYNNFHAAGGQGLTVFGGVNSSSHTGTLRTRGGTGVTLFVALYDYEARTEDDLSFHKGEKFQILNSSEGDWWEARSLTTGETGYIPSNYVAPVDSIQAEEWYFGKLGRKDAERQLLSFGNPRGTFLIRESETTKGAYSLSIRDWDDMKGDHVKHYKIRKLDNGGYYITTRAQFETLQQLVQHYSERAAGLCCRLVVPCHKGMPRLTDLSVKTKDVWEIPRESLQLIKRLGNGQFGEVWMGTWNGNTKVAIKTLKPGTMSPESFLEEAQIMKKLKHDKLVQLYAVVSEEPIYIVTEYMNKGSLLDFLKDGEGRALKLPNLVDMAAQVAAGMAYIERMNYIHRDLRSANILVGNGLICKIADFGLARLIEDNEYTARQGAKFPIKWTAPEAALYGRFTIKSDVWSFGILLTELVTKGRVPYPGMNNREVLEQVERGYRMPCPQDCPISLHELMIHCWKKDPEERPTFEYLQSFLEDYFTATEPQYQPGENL

## CC(C)CCC(=O)[C@]1(O)C(O)=C(C(=O)C(C)C)C(=O)[C@H]1CCC(C)C [TH2, tetrahydroiso-cohumulone]
PKCδ(h); 1 μg/ml
  kinase inhibition: 111% of control
PKCδ(h); 5 μg/ml
  kinase inhibition: 110% of control
PKCδ(h); 25 μg/ml
  kinase inhibition: 97% of control
PKCδ(h); 50 μg/ml
  kinase inhibition: 92% of control
PKCδ(h); 100 μg/ml
  kinase inhibition: 80% of control
Rsk3(h); 1 μg/ml
  kinase inhibition: 112% of control
Rsk3(h); 5 μg/ml
  kinase inhibition: 106% of control
Rsk3(h); 25 μg/ml
  kinase inhibition: 97% of control
Rsk3(h); 50 μg/ml
  kinase inhibition: 88% of control
Rsk3(h); 100 μg/ml
  kinase inhibition: 85% of control
DAPK1(h); 1 μg/ml
  kinase inhibition: 63% of control
DAPK1(h); 5 μg/ml
  kinase inhibition: 40% of control
DAPK1(h); 25 μg/ml
  kinase inhibition: 32% of control
DAPK1(h); 50 μg/ml
  kinase inhibition: 25% of control
DAPK1(h); 100 μg/ml
  kinase inhibition: 19% of control
PI 3-Kinaseδ(h); 1 μg/ml
  kinase inhibition: 95% of control
PI 3-Kinaseδ(h); 5 μg/ml
  kinase inhibition: 100% of control
PI 3-Kinaseδ(h); 25 μg/ml
  kinase inhibition: 72% of control
PI 3-Kinaseδ(h); 50 μg/ml
  kinase inhibition: 42% of control
PI 3-Kinaseδ(h); 100 μg/ml
  kinase inhibition: 19% of control
Fyn(h); 1 μg/ml
  kinase inhibition: 103% of control
Fyn(h); 5 μg/ml
  kinase inhibition: 105% of control
Fyn(h); 25 μg/ml
  kinase inhibition: 103% of control
Fyn(h); 50 μg/ml
  kinase inhibition: 105% of control
Fyn(h); 100 μg/ml
  kinase inhibition: 89% of control
Ret(h); 1 μg/ml
  kinase inhibition: 112% of control
Ret(h); 5 μg/ml
  kinase inhibition: 115% of control
Ret(h); 25 μg/ml
  kinase inhibition: 101% of control
Ret(h); 50 μg/ml
  kinase inhibition: 100% of control
Ret(h); 100 μg/ml
  kinase inhibition: 68% of control
PAK6(h); 1 μg/ml
  kinase inhibition: 85% of control
PAK6(h); 5 μg/ml
  kinase inhibition: 113% of control
PAK6(h); 25 μg/ml
  kinase inhibition: 90% of control
PAK6(h); 50 μg/ml
  kinase inhibition: 89% of control
PAK6(h); 100 μg/ml
  kinase inhibition: 42% of control
cKit(D816V)(h); 1 μg/ml
  kinase inhibition: 109% of control
cKit(D816V)(h); 5 μg/ml
  kinase inhibition: 105% of control
cKit(D816V)(h); 25 μg/ml
  kinase inhibition: 98% of control
cKit(D816V)(h); 50 μg/ml
  kinase inhibition: 82% of control
cKit(D816V)(h); 100 μg/ml
  kinase inhibition: 87% of control
CaMKIIβ(h); 1 μg/ml
  kinase inhibition: 103% of control
CaMKIIβ(h); 5 μg/ml
  kinase inhibition: 106% of control
CaMKIIβ(h); 25 μg/ml
  kinase inhibition: 95% of control
CaMKIIβ(h); 50 μg/ml
  kinase inhibition: 83% of control
CaMKIIβ(h); 100 μg/ml
  kinase inhibition: 66% of control
NEK11(h); 1 μg/ml
  kinase inhibition: 97% of control
NEK11(h); 5 μg/ml
  kinase inhibition: 106% of control
NEK11(h); 25 μg/ml
  kinase inhibition: 96% of control
NEK11(h); 50 μg/ml
  kinase inhibition: 75% of control
NEK11(h); 100 μg/ml
  kinase inhibition: 51% of control
MAPK1(h), ERK1; 1 μg/ml
  kinase inhibition: 93% of control
MAPK1(h), ERK1; 5 μg/ml
  kinase inhibition: 83% of control
MAPK1(h), ERK1; 25 μg/ml
  kinase inhibition: 72% of control
MAPK1(h), ERK1; 50 μg/ml
  kinase inhibition: 75% of control
MAPK1(h), ERK1; 100 μg/ml
  kinase inhibition: 67% of control
Lyn(m); 1 μg/ml
  kinase inhibition: 116% of control
Lyn(m); 5 μg/ml
  kinase inhibition: 110% of control
Lyn(m); 25 μg/ml
  kinase inhibition: 76% of control
Lyn(m); 50 μg/ml
  kinase inhibition: 58% of control
Lyn(m); 100 μg/ml
  kinase inhibition: 68% of control
PAK2(h); 1 μg/ml
  kinase inhibition: 116% of control
PAK2(h); 5 μg/ml
  kinase inhibition: 110% of control
PAK2(h); 25 μg/ml
  kinase inhibition: 107% of control
PAK2(h); 50 μg/ml
  kinase inhibition: 101% of control
PAK2(h); 100 μg/ml
  kinase inhibition: 96% of control
EGFR(T790M)(h); 1 μg/ml
  kinase inhibition: 106% of control
EGFR(T790M)(h); 5 μg/ml
  kinase inhibition: 104% of control
EGFR(T790M)(h); 25 μg/ml
  kinase inhibition: 104% of control
EGFR(T790M)(h); 50 μg/ml
  kinase inhibition: 100% of control
EGFR(T790M)(h); 100 μg/ml
  kinase inhibition: 102% of control
Arg(h); 1 μg/ml
  kinase inhibition: 92% of control
Arg(h); 5 μg/ml
  kinase inhibition: 92% of control
Arg(h); 25 μg/ml
  kinase inhibition: 69% of control
Arg(h); 50 μg/ml
  kinase inhibition: 53% of control
Arg(h); 100 μg/ml
  kinase inhibition: 43% of control
